# Data from US20210040118A1, “IMMUNOMODULATORS, COMPOSITIONS AND METHODS THEREOF” (BETTA PHARMACEUTICALS CO., LTD, priority 2018, published 2021).
# Target: T1, PD-1/PD-L1 (Homo sapiens, UniProt Q9NZQ7)
# T1 construct: Recombinant human PD-L1 protein (19-238) with a His-tag at the C-terminus; purchased AcroBiosystems PD1-H5229 (PD-L1); PD1-H5257 (PD-1)
# Assay: PD-1/PD-L1 homogenous time-resolved fluorescence (HTRF) binding assay
# Details: recombinant human PD-L1 (19-238) His-tag / human PD-1 (25-167) Fc tag, class symbols
# Summary of the method: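 HTRF binding of human PD-1 (25-167, Fc-tagged) at 3 nM and PD-L1 (19-238, His-tagged) at 10 nM, preincubated 40 min with inhibitor in PBS pH 7.4, 0.05% Tween-20, 0.1% BSA, 1% DMSO, 25°C. Eu anti-IgG (1 nM) and anti-His-APC (20 nM) added, 60 min; 665/620 nm ratio; IC50 from curve fit.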
# T1 sequence (Q9NZQ7 19-238): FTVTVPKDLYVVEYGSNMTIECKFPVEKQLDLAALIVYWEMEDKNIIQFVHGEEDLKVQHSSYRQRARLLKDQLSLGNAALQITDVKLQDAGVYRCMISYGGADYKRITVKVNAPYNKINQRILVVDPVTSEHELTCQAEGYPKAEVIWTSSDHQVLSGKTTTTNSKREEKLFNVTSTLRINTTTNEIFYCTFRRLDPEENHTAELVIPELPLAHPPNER
row,SMILES,IC50
1,"Cc1c(-c2cccc(N(C)Cc3nc4c(s3)CNCC4)c2C)cccc1N(C)Cc1nc2c(s1)CNCC2 [Example 24, N3,N3′,2,2′-tetramethyl-N3,N3′-bis((4,5,6,7-tetrahydrothiazolo[5,4-c]pyridin-2-yl)methyl)-[1,1′-biphenyl]-3,3′-diamine]",100 to 200 nM
2,"NC(=O)CN1CCc2nc(C(=O)N3CCc4c(-c5cccc6c5CCN6C(=O)c5nc6c(s5)CN(CC(=O)O)CC6)cccc43)sc2C1 [Example 107, 2-(2-(1′-(5-(2-amino-2-oxoethyl)-4,5,6,7-tetrahydrothiazolo[5,4-c]pyridine-2-carbonyl)-[4,4′-biindoline]-1-carbonyl)-6,7-dihydrothiazolo[5,4-c]pyridin-5(4H)-yl)acetic acid]",< 25 nM
3,"O=C(c1nc2c(s1)CN(CCOCCO)CC2)N1CCc2c(-c3cccc4c3CCN4C(=O)c3nc4c(s3)CN(CCOCCO)CC4)cccc21 [Example 120, [4,4′-biindoline]-1,1′-diylbis((5-(2-(2-hydroxyethoxy)ethyl)-4,5,6,7-tetrahydrothiazolo[5,4-c]pyridin-2-yl)methanone)]",< 25 nM
4,"O=C(Nc1cccc(-c2cccc(NC(=O)c3nc4c(s3)CNCC4)c2Cl)c1Cl)c1ncc(CNCCO)s1 [Example 97, N-(2,2′-dichloro-3′-(5-(((2-hydroxyethyl)amino)methyl)thiazole-2-carboxamido)-[1,1′-biphenyl]-3-yl)-4,5,6,7-tetrahydrothiazolo[5,4-c]pyridine-2-carboxamide]",< 25 nM
5,"O=C(O)CN1CCc2sc(C(=O)N3CCc4c(-c5cccc6c5CCN6C(=O)c5nc6c(s5)CCN(CC(=O)O)C6)cccc43)nc2C1 [Example 119, 2,2′-(([4,4′-biindoline]-1,1′-dicarbonyl)bis(6,7-dihydrothiazolo[4,5-c]pyridine-2,5(4H)-diyl))diacetic acid]",< 25 nM
6,"Cc1c(NC(=O)c2nc3c(o2)CNCC3)cccc1-c1cccc(NC(=O)c2nc3c(s2)CNCC3)c1C [Example 14, N-(2,2′-dimethyl-3′-(4,5,6,7-tetrahydrothiazolo[5,4-c]pyridine-2-carboxamido)-[1,1′-biphenyl]-3-yl)-4,5,6,7-tetrahydrooxazolo[5,4-c]pyridine-2-carboxamide]",< 25 nM
7,"CN(C)C(=O)CN1CCc2nc(C(=O)N3CCc4c(-c5cccc6c5CCN6C(=O)c5nc6c(s5)CN(CC(=O)O)CC6)cccc43)sc2C1 [Example 109, 2-(2-(1′-(5-(2-(dimethylamino)-2-oxoethyl)-4,5,6,7-tetrahydrothiazolo[5,4-c]pyridine-2-carbonyl)-[4,4′-biindoline]-1-carbonyl)-6,7-dihydrothiazolo[5,4-c]pyridin-5(4H)-yl)acetic acid]",< 25 nM
8,"CNC(=O)CN1CCc2nc(C(=O)N3CCc4c(-c5cccc6c5CCN6C(=O)c5nc6c(s5)CN(CC(=O)O)CC6)cccc43)sc2C1 [Example 108, 2-(2-(1′-(5-(2-(methylamino)-2-oxoethyl)-4,5,6,7-tetrahydrothiazolo[5,4-c]pyridine-2-carbonyl)-[4,4′-biindoline]-1-carbonyl)-6,7-dihydrothiazolo[5,4-c]pyridin-5(4H)-yl)acetic acid]",< 25 nM
9,"Cc1nc(C(=O)Nc2cccc(-c3cccc4c3CCN4C(=O)c3nc(C)c(CN[C@H](C(=O)O)C4CCOCC4)s3)c2Cl)sc1CN[C@H](C(=O)O)C1CCOCC1 [Example 61, (S)-2-((2-(3-(1-(5-(((S)-carboxy(tetrahydro-2H-pyran-4-yl)methylamino)methyl)-4-methylthiazole-2-carbonyl)indolin-4-yl)-2-chlorophenylcarbamoyl)-4-methylthiazol-5-yl)methylamino)-2-(tetrahydro-2H-pyran-4-yl)acetic acid]",< 25 nM
10,"CS(=O)(=O)NCCN1C2CCC1c1sc(C(=O)N3CCc4c(-c5cccc6c5CCN6C(=O)c5nc6c(s5)C5CCC(C6)N5CCNS(C)(=O)=O)cccc43)nc1C2 [Example 126, N,N′-((([4,4′-biindoline]-1,1′-dicarbonyl)bis(5,6,7,8-tetrahydro-4H-5,8-epiminocyclohepta[d]thiazole-2,9-diyl))bis(ethane-2,1-diyl))dimethanesulfonamide]",< 25 nM
11,"N#Cc1c(NC(=O)c2cn3c(n2)CNCC3)cccc1-c1cccc(NC(=O)c2cn3c(n2)CNCC3)c1C#N [Example 40, N,N′-(2,2′-dicyano-[1,1′-biphenyl]-3,3′-diyl)bis(5,6,7,8-tetrahydroimidazo[1,2-a]pyrazine-2-carboxamide)]",< 25 nM
12,"Cc1nc(C(=O)Nc2cccc(-c3cccc(NC(=O)c4nc(C)c(CN5CCCC5)s4)c3C)c2C)sc1CN1CCCC1 [Example 28, N,N′-(2,2′-dimethyl-[1,1′-biphenyl]-3,3′-diyl)bis(4-methyl-5-(pyrrolidin-1-ylmethyl)thiazole-2-carboxamide)]",< 25 nM
13,"Cc1c(NC(=O)c2nnc(C3CCCN3)o2)cccc1-c1cccc(NC(=O)c2nnc(C3CCCN3)o2)c1C (stereo not drawn) [Example 41, N,N′-(2,2′-dimethyl-[1,1′-biphenyl]-3,3′-diyl)bis(5-(pyrrolidin-2-yl)-1,3,4-oxadiazole-2-carboxamide)]",< 25 nM
14,"Cc1nc(C(=O)Nc2cccc(-c3cccc(NC(=O)c4nc(C)c(CN5CCCC[C@H]5C(=O)O)s4)c3C)c2C)sc1CN1CCCC[C@H]1C(=O)O [Example 52, (2S,2'S)-1,1′-(2,2′-(2,2′-dimethylbiphenyl-3,3′-diyl)bis(azanediyl)bis(oxomethylene)bis(4-methylthiazole-5,2-diyl))bis(methylene)dipiperidine-2-carboxylic acid]",< 25 nM
15,"O=C(Nc1cccc(-c2cccc(NC(=O)c3nc4c(s3)CNCC4)c2Cl)c1Cl)c1nc2c(s1)CNCC2 [Example 89, N,N′-(2,2′-dichloro-[1,1′-biphenyl]-3,3′-diyl)bis(4,5,6,7-tetrahydrothiazolo[5,4-c]pyridine-2-carboxamide)]",< 25 nM

# Continued, values first:
row,IC50,SMILES
1,< 25 nM,"Cc1c(Nc2nccc3cc(CNC4([C@H](C)O)CC4)cnc23)cccc1-c1cccc(Nc2nccc3cc(CNC4([C@H](C)O)CC4)cnc23)c1C [Example 157, (1S,1'S)-1,1′-((((((2,2′-dimethyl-[1,1′-biphenyl]-3,3′-diyl)bis(azanediyl))bis(1,7-naphthyridine-8,3-diyl))bis(methylene))bis(azanediyl))bis(cyclopropane-1,1-diyl))bis(ethan-1-ol)]"
2,< 25 nM,"Cc1c(Nc2nccc3cc(CNCC(=O)N(C)C)cnc23)cccc1-c1cccc(Nc2nccc3cc(CNCC(F)(F)F)cnc23)c1C [Example 146, 2-(((8-((2,2′-dimethyl-3′-((3-(((2,2,2-trifluoroethyl)amino)methyl)-1,7-naphthyridin-8-yl)amino)-[1,1′-biphenyl]-3-yl)amino)-1,7-naphthyridin-3-yl)methyl)amino)-N,N-dimethylacetamide]"
3,< 25 nM,"Cc1c(NC(=O)c2ccc3c(n2)CCNC3)cccc1-c1cccc(NC(=O)c2ccc3c(n2)CCN(C)C3)c1C [Example 185, N-(2,2′-dimethyl-3′-(5,6,7,8-tetrahydro-1,6-naphthyridine-2-carboxamido)-[1,1′-biphenyl]-3-yl)-6-methyl-5,6,7,8-tetrahydro-1,6-naphthyridine-2-carboxamide]"
4,< 25 nM,"CC(C(=O)NS(C)(=O)=O)N1CCc2nc(C(=O)N3CCc4c(-c5cccc6c5CCN6C(=O)c5nc6c(s5)CN(C(C)C(=O)NS(C)(=O)=O)CC6)cccc43)sc2C1 (stereo not drawn) [Example 127, 2,2′-(([4,4′-biindoline]-1,1′-dicarbonyl)bis(6,7-dihydrothiazolo[5,4-c]pyridine-2,5(4H)-diyl))bis(N-(methylsulfonyl)propanamide)]"
5,< 25 nM,"O=C(c1nc2c(s1)CN(CCCB(O)O)CC2)N1CCc2c(-c3cccc4c3CCN4C(=O)c3nc4c(s3)CN(CCCB(O)O)CC4)cccc21 [Example 121, ((([4,4′-biindoline]-1,1′-dicarbonyl)bis(6,7-dihydrothiazolo[5,4-c]pyridine-2,5(4H)-diyl))bis(propane-3,1-diyl))diboronic acid]"
6,25 to 100 nM,"CCOC(=O)CNC(C)c1cnc(C(=O)Nc2cccc(-c3cccc(NC(=O)c4cnc(C(C)NCC(=O)OCC)cn4)c3C)c2C)cn1 (stereo not drawn) [Example 179, diethyl 2,2′-((((((2,2′-dimethyl-[1,1′-biphenyl]-3,3′-diyl)bis(azanediyl))bis(carbonyl))bis(pyrazine-5,2-diyl))bis(ethane-1,1-diyl))bis(azanediyl))diacetate]"
7,> 200 nM,"Cc1oc(=O)oc1COC(=O)N1CCc2nc(C(=O)Nc3cccc(-c4cccc(NC(=O)c5ccc6c(n5)CCN(C(=O)OCc5oc(=O)oc5C)C6)c4C)c3C)ccc2C1 [Example 184, bis((5-methyl-2-oxo-1,3-dioxol-4-yl)methyl) 2,2′-(((2,2′-dimethyl-[1,1′-biphenyl]-3,3′-diyl)bis(azanediyl))bis(carbonyl))bis(7,8-dihydro-1,6-naphthyridine-6(5H)-carboxylate)]"
8,100 to 200 nM,"Cc1c(NC(=O)c2ccc3c(n2)CCN(CC(=O)OC(C)(C)C)C3)cccc1-c1cccc(NC(=O)c2ccc3c(n2)CCN(CC(=O)OC(C)(C)C)C3)c1C [Example 172, di-tert-butyl 2,2′-((((2,2′-dimethyl-[1,1′-biphenyl]-3,3′-diyl)bis(azanediyl))bis(carbonyl))bis(7,8-dihydro-1,6-naphthyridine-2,6(5H)-diyl))diacetate]"
9,< 25 nM,"Cc1c(Nc2nccc3cc(CNCCO)cnc23)cccc1-c1cccc(Nc2nccc3cc(CNCC(F)(F)F)cnc23)c1C [Example 156, 2-(((8-((2,2′-dimethyl-3′-((3-(((2,2,2-trifluoroethyl)amino)methyl)-1,7-naphthyridin-8-yl)amino)-[1,1′-biphenyl]-3-yl)amino)-1,7-naphthyridin-3-yl)methyl)amino)ethan-1-ol]"
